For 17 compounds, Ki results are on record in paper PMC7827628, “Effect of Sulfonamides and Their Structurally Related Derivatives on the Activity of ι-Carbonic Anhydrase from Burkholderia territorii” (International Journal of Molecular Sciences, 2021).

Structures are written as SMILES.

In this assay the target is BteCAι. Briefly: stopped-flow CO2 hydration assay. The assay is classed as biochemical, Burkholderia territorii. The settings on record: CO2 substrate; 20 °C, pH 7.5, 10 mM HEPES (methods give 20 mM TRIS pH 8.3, 20 mM NaClO4); 15 min preincubation.

As to `CCN[C@H]1CN(CCCOC)S(=O)(=O)c2sc(S(N)(=O)=O)cc21` [BRZ, brinzolamide], the affinity corresponds to a Ki of 3700 nM.
Turning to `NS(=O)(=O)c1nnc(NS(=O)(=O)c2ccccc2)s1` [BZA, benzolamide], the Ki (usually a dissociation constant, usually derived from enzyme kinetics or from competition with a known ligand) was 724 nM.
`Cc1ccc(-c2cc(C(F)(F)F)nn2-c2ccc(S(N)(=O)=O)cc2)cc1` [CLX, celecoxib] registered an inhibition constant Ki of 960 nM.
The compound `NS(=O)(=O)c1cc(Cl)c(Cl)c(S(N)(=O)=O)c1` [DCP, dichlorphenamide] had an inhibition constant Ki of 825 nM.
As for `NS(=O)(=O)NCCNc1nonc1/C(=N/O)Nc1ccc(F)c(Br)c1` [EPA, epacadostat], the figure is 955 nM; as for `NC(N)=Nc1nc(CSCCC(N)=NS(N)(=O)=O)cs1` [FAM, Famotidine], 943 nM; as for `NS(=O)(=O)c1cc2c(cc1Cl)NCNS2(=O)=O` [HCT, hydrochlorothiazide], 780 nM.
As to `NS(=O)(=O)c1ccc(S(=O)(=O)Nc2cccc3c(Cl)c[nH]c23)cc1` [IND, Indisulam], the Ki amounted to 638 nM.
Turning to `O=C1NS(=O)(=O)c2ccccc21` [SAC, Saccharin], the Ki turned out to be 7080 nM.
In the case of `CCN1CCCC1CNC(=O)c1cc(S(N)(=O)=O)ccc1OC` (centres unmarked) [SLP, Sulpiride], the Ki came to 958 nM.
As for `NS(=O)(=O)c1ccc(N2CCCCS2(=O)=O)cc1` [SLT, sulthiame], the figure is 954 nM; as for `CC1(C)O[C@@H]2[C@@H](CO[C@@]3(COS(N)(=O)=O)OC(C)(C)O[C@@H]23)O1` [TPM, topiramate], 787 nM; as for `Cc1onc(-c2ccccc2)c1-c1ccc(S(N)(=O)=O)cc1` [VLX, valdecoxib], 934 nM.
The result for `NS(=O)(=O)Cc1noc2ccccc12` [ZNS, Zonisamide] reads 806 nM; that for `NCc1ccc(S(N)(=O)=O)cc1` [compound 5, 5], 97 nM.
Take `Nc1ccc(S(N)(=O)=O)cc1Br` [compound 9, 9]: the inhibition constant (Ki) came to 96 nM.
For the compound `Nc1nccc(Nc2ccc(S(N)(=O)=O)cc2)n1` [compound 19, 19], affinity was put at a Ki of 93 nM.
